Test results published in the RepoRT retention time repository (doi:10.1021/acs.analchem.1c00972).

What was measured:
[1] = RP, Waters ACQUITY UPLC BEH C18, 100 × 1 mm, 1.7 µm, 50 °C, 0.3 mL/min, estimated dead time 0.17 min; A: water + 10 mM ammonium bicarbonate; B: 10% water + 90% methanol + 10 mM ammonium bicarbonate; gradient (min/%B) 0/0 15/100 21/100 22/0 30/0; conditions: stereoisomer not certain
[2] = RP, Waters ACQUITY UPLC BEH C18, 100 × 1 mm, 1.7 µm, 50 °C, 0.3 mL/min, estimated dead time 0.17 min; A: water + 0.1% formic acid + 20 mM ammonium formate; B: methanol + 0.1% formic acid + 20 mM ammonium formate; gradient (min/%B) 0/0 15/100 21/100 22/0 30/0; conditions: stereoisomer not certain

LC retention time [1] | LC retention time [2] | Compound
17.3 min | 17 min | CCCCC(CC)COC(=O)CC(C(=O)OCC(CC)CCCC)S(=O)(=O)O (configuration not stated) [Dioctylsulfosuccinate]
19.6 min | 19 min | CC1CCC2(OC1)OC1CC3C4CC=C5CC(O)CCC5(C)C4CCC3(C)C1C2C (configuration not stated) [Diosgenin]
15.7 min | 11.7 min | CN(C)CCOC(c1ccccc1)c1ccccc1 [Diphenhydramine]
6.92 min | 6.88 min | NCCc1ccc(O)c(O)c1 [Dopamine]
14 min | 11.6 min | COc1cc2nc(N3CCN(C(=O)C4COc5ccccc5O4)CC3)nc(N)c2cc1OC (configuration not stated) [Doxazosin]
14 min | 8.49 min | CN(C)CCOC(C)(c1ccccc1)c1ccccn1 (configuration not stated) [Doxylamine]
10.7 min | 6.44 min | OCC(O)CN1CCN(c2ccccc2)CC1 (configuration not stated) [Dropropizine]
14.5 min | 14.2 min | CC12CCC(=O)C=C1C1CC1C1C2CCC2(C)C1C1CC1C21CCC(=O)O1 (configuration not stated) [Drospirenone]
15.4 min | 13.2 min | CNCCC(Oc1cccc2ccccc12)c1cccs1 (configuration not stated) [Duloxetine]
18.8 min | 15.9 min | CC(C)(C)c1ccc(C(=O)CCCN2CCC(OC(c3ccccc3)c3ccccc3)CC2)cc1 [Ebastin]
15.8 min | 15.5 min | O=C1Nc2ccc(Cl)cc2C(C#CC2CC2)(C(F)(F)F)O1 (configuration not stated) [Efavirenz]
5.99 min | 5.75 min | Nc1nc(=O)n(C2CSC(CO)O2)cc1F (configuration not stated) [Emtricitabine]
12.2 min | 11.7 min | CCOC(=O)C(CCc1ccccc1)NC(C)C(=O)N1CCCC1C(=O)O (configuration not stated) [Enalapril]
11.4 min | 8.5 min | CCN1CCN(c2cc3c(cc2F)c(=O)c(C(=O)O)cn3C2CC2)CC1 [Enrofloxacin]
18.3 min | 17.9 min | CCC(C)C1OC2(C=CC1C)CC1CC(CC=C(C)C(OC3CC(OC)C(OC4CC(OC)C(NC(C)=O)C(C)O4)C(C)O3)C(C)C=CC=C3COC4C(O)C(C)=CC(C(=O)O1)C34O)O2 (configuration not stated) [Eprinomectin B1a]
6.82 min | 6.51 min | CC=C1CC2(CO)OC2(C)C(=O)OCC2=CC[N+]3([O-])CCC(OC1=O)C23 (configuration not stated) [Erucifoline N-oxide]
10.2 min | 6 min | CC=C1CC2(CO)OC2(C)C(=O)OCC2=CCN3CCC(OC1=O)C23 (configuration not stated) [Erucifoline]
15.9 min | 13.2 min | CCC1OC(=O)C(C)C(OC2CC(C)(OC)C(O)C(C)O2)C(C)C(OC2OC(C)CC(N(C)C)C2O)C(C)(O)CC(C)C(=O)C(C)C(O)C1(C)O (configuration not stated) [Erythromycin]
8.81 min | 8.76 min | CCS(=O)(=O)c1nnc(N(C)C(=O)NC)s1 [Ethidimuron]
14.6 min | 14.3 min | CCOC(=O)c1ccc(N(C)C)cc1 [Ethyl-4-dimethylaminobenzoate]
7.37 min | 6.99 min | COC(C)C(O)(C(=O)OCC1=CC[N+]2([O-])CCC(O)C12)C(C)(C)O (configuration not stated) [Europine N-oxide]
17.3 min | 17 min | CC(C)OC(=O)C(C)(C)Oc1ccc(C(=O)c2ccc(Cl)cc2)cc1 [Fenofibrate]
15.6 min | 15.3 min | CCOC(=O)NCCOc1ccc(Oc2ccccc2)cc1 [Fenoxycarb]
14.9 min | 14.6 min | CC(C)(C)NC(=O)C1CCC2C3CCC4NC(=O)C=CC4(C)C3CCC12C (configuration not stated) [Finasteride]
17.1 min | 16.7 min | CCCCOC(=O)C(C)Oc1ccc(Oc2ccc(C(F)(F)F)cn2)cc1 (configuration not stated) [Fluazifop-butyl]
8.91 min | 11.8 min | CC1CCc2cc(F)cc3c(=O)c(C(=O)O)cn1c23 (configuration not stated) [Flumequine]
13.8 min | 13.6 min | CC1(C)OC2CC3C4CC(F)C5=CC(=O)C=CC5(C)C4C(O)CC3(C)C2(C(=O)CO)O1 (configuration not stated) [Flunisolide]
14.1 min | 13.8 min | CC(=O)C1(O)CCC2C3CC(C)C4=CC(=O)C=CC4(C)C3(F)C(O)CC21C (configuration not stated) [Fluorometholone]
17.3 min | 14.7 min | OCCN1CCN(CCC=C2c3ccccc3Sc3ccc(C(F)(F)F)cc32)CC1 [Flupentixol]

Compound | LC retention time [1] | LC retention time [2]
COP(=S)(S)OC [Dimethyldithiophosphate] | 2.81 min | 2.01 min
CCCCCCCCCOC(=O)c1ccccc1C(=O)OCCCCCCCCC [Dinonylphthalate] | 20.5 min | 19.7 min
CC(C)(C)c1cc([N+](=O)[O-])cc([N+](=O)[O-])c1O [Dinoterb] | 12.6 min | 15.7 min
O=P(O)(Oc1ccccc1)Oc1ccccc1 [Diphenylphosphate] | 10.9 min | 11 min
O=C(Oc1ccccc1)c1ccccc1C(=O)Oc1ccccc1 [Diphenylphthalate] | 16 min | 15.7 min
O=c1[nH]c2ccccc2n1CCCN1CCC(n2c(=O)[nH]c3cc(Cl)ccc32)CC1 [Domperidone] | 14.8 min | 10.7 min
CC=C(C)C(=O)OC1CCN2CC=C(COC(=O)C(O)(C(C)O)C(C)(C)O)C12 (configuration not stated) [Echimidine] | 13.2 min | 9.4 min
CCC(C)C1OC2(C=CC1C)CC1CC(CC=C(C)C(OC3CC(OC)C(OC4CC(OC)C(NC)C(C)O4)C(C)O3)C(C)C=CC=C3COC4C(O)C(C)=CC(C(=O)O1)C34O)O2 (configuration not stated) [Emamectin B1a] | 18.6 min | 17.1 min
CCC1COC(Cn2cncn2)(c2ccc(Cl)cc2Cl)O1 (configuration not stated) [Etaconazole] | 15.4 min | 15 min
CCOc1ccc(C(C)(C)COCc2cccc(Oc3ccccc3)c2)cc1 [Etofenprox] | 14.1 min | 13.8 min
CCOc1cc(C(C)(C)C)ccc1C1COC(c2c(F)cccc2F)=N1 (configuration not stated) [Etoxazole] | 17.8 min | 17.4 min
COC(C)C(O)(C(=O)OCC1=CCN2CCC(O)C12)C(C)(C)O (configuration not stated) [Europine] | 9.86 min | 6.72 min
C=C1CC2C(CCC3(C)C(=O)CCC23)C2(C)C=CC(=O)C=C12 (configuration not stated) [Exemestane] | 14.3 min | 14 min
CCOP(=O)(NC(C)C)Oc1ccc(S(C)(=O)=O)c(C)c1 (configuration not stated) [Fenamiphos-sulfone] | 12.4 min | 12.2 min
COP(=S)(OC)Oc1ccc(S(C)=O)c(C)c1 (configuration not stated) [Fenthion-sulfoxide] | 12.3 min | 12.1 min
COc1ncc(F)c2nc(S(=O)(=O)Nc3c(F)cccc3F)nn12 [Florasulam] | 9 min | 10.5 min
O=c1c2cc(F)ccc2nc(-n2cncn2)n1-c1ccc(Cl)cc1Cl [Fluquinconazole] | 15 min | 14.7 min
